Results published in patent US20260234115A1, “LIPID COMPOUNDS, COMPOSITIONS, AND USES THEREOF” (Liberate Bio, Inc., priority 2023, published 2026).
Marks after values point to notes of the source that are not given here.

Key:
[1] = Dynamic light scattering: LNP particle size and PDI; format: physicochemical; details: for Particle Size (nm) / PDI: LNP compositions for in vivo mouse study; for Particle Size (nm): four formulations (F1-F4) of the lipid compound pooled, or pools of four compounds (sixteen compositions); for PDI: four formulations (F1-F4) pooled, or pools of four compounds; for PDI N/P:6 / Size (nm) N/P:6: LNP
Description: (§1) Lipids and active ingredients (e.g., RNA, DNA, etc.) were assembled into LNPs using microfluidic mixing. An ethanol phase was prepared by solubilizing ionizable lipids (i.e., lipid compounds), phospholipids (e.g., DSPC), cholesterol, and PEG lipids in ethanol, at predetermined mol % ratios given in Table 2. An aqueous phase was prepared by diluting a nucleic acid cargo (e.g., firefly luciferase mRNA) in an acidified buffer (pH 4.0 citrate buffer, 50 mM). A chip with microfluidic mixing architecture (e.g., toroidal mixer) was used to mix the two phases at predetermined flow rate ratios (e.g., 9 ml/min for the aqueous phase and 3 ml/min for the ethanol phase). Resulting LNPs comprising the lipids and encapsulating the nucleic acid cargo were dialyzed against PBS pH 7.4 for 2 hours at room temperature in a 20 kDa MWCO dialysis membrane. Then, PBS was refreshed to continue dialysis overnight at 2-8 TC. Upon completion of the buffer exchange, LNPs were optionally concentrated using a ultracentrifugal unit with a 10-100 kDa MWCO membrane.
d. Dynamic Light Scattering
LNPs were diluted with PBS pH 7.4 to predetermined dilution ranges based on the process step and LNP concentration. Following mixing, the particle size and PDI were measured by a dynamic light scattering instrument.

[2] = Plate-based fluorescence (RiboGreen) assay: nucleic acid cargo content and encapsulation efficiency of LNPs; format: physicochemical; details: for EE % / mRNA Content: LNP compositions for in vivo mouse study, four formulations (F1-F4) pooled, or pools of four compounds; for EE (%) N/P:6: LNP
Description: as §1
c. Plate-Based Fluorescence (RiboGreen) Assay
Nucleic acid cargos in the LNPs were quantified by RiboGreen assay, against a nucleic acid standard curve. LNPs encapsulating nucleic acid cargo were mixed with 1× Tris-EDTA (TE) and 2% triton in TE, separately, to achieve dilutions required by the assay. Then, the samples were heated at 30° C. and vortexed at 300 rpm. Samples were plated into 96-well plates and RiboGreen reagent was added into each well. Following incubation in the dark, fluorescence was measured from the wells, and plotted against the standard curve. Nucleic acid concentration obtained from the Triton-treated samples were used for total cargo concentration quantification. Only TE diluted sample fluorescence values were used to determine the non-encapsulated (free) cargo, and their ratio was used to determine the encapsulation efficiency (EE %).

mouse organs = test: In vivo activity screening in mice: organ mean total flux (p/s) of luciferase activity after injection of F2 LNP pools (Table 6, FIG. 7A-7C); details: luciferase mRNA
Method in brief: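 C57BL/6J mice given one tail-vein injection of pooled Formulation F2 LNPs carrying firefly luciferase mRNA (0.25-3 mg/kg) in PBS. At 4-6 h, s.c. D-luciferin given; organs imaged ex vivo by IVIS within 10-15 min, after saline cardiac perfusion. Mean total flux (p/s) per organ ROI.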

## CCCCCCCCOC(CCC(=O)OCC(COC(=O)CCCCCCOC(=O)C(CCCC)CCCCCC)(COC(=O)CCC(CCCCCC)OC(=O)NCCN1CCCC1)COC(=O)CCC(OCCCCCCCC)OCCCCCCCC)OCCCCCCCC (centres unmarked) [Compound 20, [7-[2,2-bis(4,4-dioctoxybutanoyloxymethyl)-3-[4-(2-pyrrolidin-1-ylethylcarbamoyloxy)decanoyloxy]propoxy]-7-oxo-heptyl]2-butyloctanoate]
[1]
  Particle Size (nm): 79 nm
  PDI: 0.02
[1]; Formulation F1, N/P 6
  PDI N/P:6: 0.06
  Size (nm) N/P:6: 64 ± 1 nm
[1]; Formulation F2, N/P 6
  PDI N/P:6: 0.03
  Size (nm) N/P:6: 76 ± 1 nm
[1]; Formulation F3, N/P 6
  PDI N/P:6: 0.03
  Size (nm) N/P:6: 91 ± 2 nm
[1]; Formulation F4, N/P 6
  PDI N/P:6: 0.05
  Size (nm) N/P:6: 61 ± 1 nm
[2]
  EE %: 97%
  mRNA Content: 98 µg/mL
[2]; Formulation F1, N/P 6
  EE (%) N/P:6: 100%
[2]; Formulation F2, N/P 6
  EE (%) N/P:6: 100%
[2]; Formulation F3, N/P 6
  EE (%) N/P:6: 100%
[2]; Formulation F4, N/P 6
  EE (%) N/P:6: 100%

## CCCCC/C=C\C/C=C\CCCCCCCC(=O)OCC(COC(=O)CCCCCCC/C=C\C/C=C\CCCCC)(COC(=O)CCC(CCCCCC)OC(=O)NCCN1CCCC1)COC(=O)CC12CC3CC(CC(C3)C1)C2 (centres unmarked) [Compound 5, [2-[[2-(1-adamantyl)acetyl]oxymethyl]-2-[[(9Z,12Z)-octadeca-9,12-dienoyl]oxymethyl]-3-[4-(2-pyrrolidin-1-ylethylcarbamoyloxy)decanoyloxy]propyl](9Z,12Z)-octadeca-9,12-dienoate]
[1]
  Particle Size (nm): 84.4 nm
  PDI: 0.12
[1]; Formulation F1, N/P 6
  PDI N/P:6: 0.12
  Size (nm) N/P:6: 70 ± 0 nm
[1]; Formulation F2, N/P 6
  PDI N/P:6: 0.08
  Size (nm) N/P:6: 88 ± 3 nm
[1]; Formulation F3, N/P 6
  PDI N/P:6: 0.06
  Size (nm) N/P:6: 97 ± 3 nm
[1]; Formulation F4, N/P 6
  PDI N/P:6: 0.16
  Size (nm) N/P:6: 66 ± 3 nm
[2]
  EE %: 96%
  mRNA Content: 80 µg/mL
[2]; Formulation F1, N/P 6
  EE (%) N/P:6: 98%
[2]; Formulation F2, N/P 6
  EE (%) N/P:6: 96%
[2]; Formulation F3, N/P 6
  EE (%) N/P:6: 98%
[2]; Formulation F4, N/P 6
  EE (%) N/P:6: 99%

## CCCCC/C=C\CCOC(=O)CCCCC(=O)OCC(COC(=O)CCCCC(=O)OCC/C=C\CCCCC)(COC(=O)CCC(CCCCCCCC)OC(=O)NCCN1CCCC1)COC(=O)CC12CC3CC(CC(C3)C1)C2 (centres unmarked) [Compound 66, O6-[2-[[2-(1-adamantyl)acetyl]oxymethyl]-2-[[6-[(Z)-non-3-enoxy]-6-oxohexanoyl]oxymethyl]-3-[4-(2-pyrrolidin-1-ylethylcarbamoyloxy)dodecanoyloxy]propyl]O1-[(Z)-non-3-enyl]hexanedioate]
Mouse organs; Mouse 9, dose 0.5 mg/kg
  Organ Mean Total Flux Femur: 5.5 p/s (×10^6)
  Organ Mean Total Flux Heart: 1.3 p/s (×10^6)
  Organ Mean Total Flux Kidney: 1.8 p/s (×10^6)
  Organ Mean Total Flux Liver: 68.9 p/s (×10^6)
  Organ Mean Total Flux Lung: 14.1 p/s (×10^6)
  Organ Mean Total Flux Muscle: 11.3 p/s (×10^6)
  Organ Mean Total Flux Pancreas: 4.0 p/s (×10^6)
  Organ Mean Total Flux Spleen: 7.8 p/s (×10^6)

## CCCCC/C=C\CCOC(=O)CCCCC(=O)OCC(COC(=O)CCCCC(=O)OCC/C=C\CCCCC)(COC(=O)CCC(CCCCCC)OC(=O)NCCN1CCCC1)COC(=O)CCC(OCCCCCCCC)OCCCCCCCC (centres unmarked) [Compound 15, O6-[2-(4,4-dioctoxybutanoyloxymethyl)-2-[[6-[(Z)-non-3-enoxy]-6-oxo-hexanoyl]oxymethyl]-3-[4-(2-pyrrolidin-1-ylethylcarbamoyloxy)decanoyloxy]propyl]O1-[(Z)-non-3-enyl]hexanedioate]
Mouse organs; Mouse 13, dose 0.5 mg/kg
  Organ Mean Total Flux Femur: 1.3 p/s (×10^6)
  Organ Mean Total Flux Heart: 1.4 p/s (×10^6)
  Organ Mean Total Flux Kidney: 0.4 p/s (×10^6)
  Organ Mean Total Flux Liver: 992.3 p/s (×10^6)
  Organ Mean Total Flux Lung: 3.7 p/s (×10^6)
  Organ Mean Total Flux Muscle: 1.1 p/s (×10^6)
  Organ Mean Total Flux Pancreas: 0.1 p/s (×10^6)
  Organ Mean Total Flux Spleen: 1.6 p/s (×10^6)

## CCCCCCC(CCC(=O)OCC(COC(=O)CCCCCOC(=O)C(CCCC)CCCCCC)(COC(=O)CCCCCOC(=O)C(CCCC)CCCCCC)COC(=O)CC12CC3CC(CC(C3)C1)C2)OC(=O)NCCN1CCCC1 (centres unmarked) [Compound 58, [6-[2-[[2-(1-adamantyl)acetyl]oxymethyl]-2-[6-(2-butyloctanoyloxy)hexanoyloxymethyl]-3-[4-(2-pyrolidin-1-ylethylcarbamoyloxy)decanoyloxy]propoxy]-6-oxo-hexyl]2-butyloctanoate]
Mouse organs; Mouse 3, dose 1.0 mg/kg
  Organ Mean Total Flux Femur: 11.5 p/s (×10^6)
  Organ Mean Total Flux Heart: 2.8 p/s (×10^6)
  Organ Mean Total Flux Kidney: 2.6 p/s (×10^6)
  Organ Mean Total Flux Liver: 1493 p/s (×10^6)
  Organ Mean Total Flux Lung: 41.0 p/s (×10^6)
  Organ Mean Total Flux Muscle: 29.1 p/s (×10^6)
  Organ Mean Total Flux Pancreas: 9.2 p/s (×10^6)
  Organ Mean Total Flux Spleen: 10.5 p/s (×10^6)

## CCCCC/C=C\CCCOC(=O)CCCCCCC(=O)OCC(COC(=O)CCCCCCC(=O)OCCC/C=C\CCCCC)(COC(=O)CCCCCCC(=O)OCCC/C=C\CCCCC)COC(=O)CCC(CCCCCC)OC(=O)NCCN1CCCC1 (centres unmarked) [Compound 46, 8,8′-di((Z)-dec-4-en-1-yl) O′1,O1-(2-(((8-(((Z)-dec-4-en-1-yl)oxy)-8-oxooctanoyl)oxy)methyl)-2-(((4-(((2-(pyrrolidin-1-yl)ethyl)carbamoyl)oxy)decanoyl)oxy)methyl)propane-1,3-diyl) di(octanedioate)]
Mouse organs; Mouse 11, dose 0.5 mg/kg
  Organ Mean Total Flux Femur: 1.8 p/s (×10^6)
  Organ Mean Total Flux Heart: 4.1 p/s (×10^6)
  Organ Mean Total Flux Kidney: 2.1 p/s (×10^6)
  Organ Mean Total Flux Liver: 3107 p/s (×10^6)
  Organ Mean Total Flux Lung: 17.8 p/s (×10^6)
  Organ Mean Total Flux Muscle: 4.2 p/s (×10^6)
  Organ Mean Total Flux Pancreas: 0.9 p/s (×10^6)
  Organ Mean Total Flux Spleen: 1.8 p/s (×10^6)

## CCCCC/C=C\CCOC(=O)CCCCC(=O)OCC(COC(=O)CCCCC(=O)OCC/C=C\CCCCC)(COC(=O)CCC(CCCC)CCOC(=O)NCCN1CCCC1)COC(=O)CC12CC3CC(CC(C3)C1)C2 (centres unmarked) [Compound 61, O6-[2-[[2-(1-adamantyl)acetyl]oxymethyl]-2-[[6-[(Z)-non-3-enoxy]-6-oxo-hexanoyl]-oxymethyl]-3-[4-[2-(2-pyrrolidin-1-ylethylcarbamoyloxy)ethyl]octanoyloxy]propyl]O1-[(Z)-non-3-enyl]hexanedioate]
Mouse organs; Mouse 2, dose 1.0 mg/kg
  Organ Mean Total Flux Femur: 34.2 p/s (×10^6)
  Organ Mean Total Flux Heart: 1.9 p/s (×10^6)
  Organ Mean Total Flux Kidney: 4.8 p/s (×10^6)
  Organ Mean Total Flux Liver: 542.7 p/s (×10^6)
  Organ Mean Total Flux Lung: 123.9 p/s (×10^6)
  Organ Mean Total Flux Muscle: 28.1 p/s (×10^6)
  Organ Mean Total Flux Pancreas: 28.8 p/s (×10^6)
  Organ Mean Total Flux Spleen: 85.1 p/s (×10^6)
Mouse organs; Mouse 14, dose 0.5 mg/kg
  Organ Mean Total Flux Femur: 16.6 p/s (×10^6)
  Organ Mean Total Flux Heart: 1.0 p/s (×10^6)
  Organ Mean Total Flux Kidney: 5.0 p/s (×10^6)
  Organ Mean Total Flux Liver: 157.3 p/s (×10^6)
  Organ Mean Total Flux Lung: 33.8 p/s (×10^6)
  Organ Mean Total Flux Muscle: 11.1 p/s (×10^6)
  Organ Mean Total Flux Pancreas: 51.6 p/s (×10^6)
  Organ Mean Total Flux Spleen: 109.9 p/s (×10^6)
